Source: patent publication US20130217702A1 (Richter Gedeon Nyrt., priority 2010, published 2013)

Assays:
[1] = molecular target: T1, recombinant human B1 receptors (Homo sapiens, UniProt P46663); assay: Functional assay: antagonist potency by cytosolic calcium measurement (plate reader fluorimeter) in CHO-B1 cells, agonist LysDABK; type: cell-based; conditions: CHO-B1 cells, inhibition of LysDABK (EC80)-evoked [Ca2+]i elevation; read-out: B1 func.
T1 construct: host or cells: CHO (CHO-B1)
T1 sequence (P46663 1-353): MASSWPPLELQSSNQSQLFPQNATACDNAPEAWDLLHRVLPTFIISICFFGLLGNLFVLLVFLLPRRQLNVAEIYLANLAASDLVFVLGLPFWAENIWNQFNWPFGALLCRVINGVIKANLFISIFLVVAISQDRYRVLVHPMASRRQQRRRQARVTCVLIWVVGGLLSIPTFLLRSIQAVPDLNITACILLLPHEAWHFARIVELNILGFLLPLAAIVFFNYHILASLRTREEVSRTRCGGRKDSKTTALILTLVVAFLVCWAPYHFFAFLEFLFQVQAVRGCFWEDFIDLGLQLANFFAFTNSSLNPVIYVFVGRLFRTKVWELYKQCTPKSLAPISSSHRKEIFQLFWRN
Method in brief: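 IC50 is the concentration giving half-maximal inhibition of the LysDABK (EC80) calcium response, fitted from at least three experiments. CHO cells stably expressing human B1 were dye-loaded, exposed to compound for 20-25 min, then read by fluo-4 fluorescence (ΔF/F) at 37 °C.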

[2] = molecular target: T2, human recombinant bradykinin B1 receptor (Homo sapiens, UniProt P46663); assay: Human recombinant bradykinin B1 receptor competitive radioligand binding; conditions: hB1 expressed in CHO cells, [3H]-[Des-Arg10] Kallidin radioligand; read-out: B1 binding
T2 construct: host or cells: CHO cells, clone hB1-A5
T2 sequence (P46663 1-353): T1 sequence (P46663 1-353)
Method in brief: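 Membranes from CHO cells expressing hB1 (20 μg protein/tube) incubated 15 min at 25° C. with [3,4-prolyl-3,4-^3H(N)]-[Des-Arg^10] Kallidin; nonspecific binding defined with 10 μM Lys-des-Arg^9-Bradykinin. Bound label collected by filtration and counted. IC50 from ≥7-point curves in triplicate; Ki by Cheng-Prusoff.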

SMILES | IC50 [1] | Ki [2]
COc1cc(C(=O)NC2(C(=O)N[C@H](C)c3ccc(-n4c(-c5noc(C)n5)c(Cl)c5ccccc54)cc3F)CC2)on1 [Example 191, 3-Methoxy-isoxazole-5-carboxylic acid [1-((R)-1-{4-[3-chloro-2-(5-methyl-[1,2,4]oxadiazol-3-yl)-indol-1-yl]-2-fluoro-phenyl}-ethylcarbamoyl)-cyclopropyl]amide] | < 20 nM | < 20 nM
Cc1nc(-c2c(Cl)c3cc(Cl)ccc3n2-c2ccc(CNC(=O)C3(NC(=O)c4cncc(C(F)(F)F)c4)CC3)cc2)no1 [Example 76, N-(1-{4-[3,5-Dichloro-2-(5-methyl-[1,2,4]oxadiazol-3-yl)-indol-1-yl]-benzylcarbamoyl}-cyclopropyl)-5-trifluoromethyl-nicotinamide] | < 20 nM | < 20 nM
COc1cc(C(=O)NC2(C(=O)NCc3ccc(-n4c(-c5nnn(C)n5)c(Cl)c5ccccc54)cc3)CC2)on1 [Example 2, 3-Methoxy-isoxazole-5-carboxylic acid (1-{4-[3-chloro-2-(2-methyl-2H-tetrazol-5-yl)-indol-1-yl]-benzylcarbamoyl}-cyclopropyl)-amide] | < 20 nM | < 20 nM
Cc1cnc(C(=O)NC2(C(=O)NCc3ccc(-n4c(-c5noc(C)n5)c(Cl)c5cc(F)ccc54)cc3)CC2)cn1 [Example 87, 5-Methyl-pyrazine-2-carboxylic acid (1-{4-[3-chloro-5-fluoro-2-(5-methyl-[1,2,4]oxadiazol-3-yl)-indol-1-yl]-benzylcarbamoyl}-cyclopropyl)-amide] | < 20 nM | < 20 nM
COc1cc(C(=O)NC2(C(=O)NCc3ccc(-n4c(-c5nnnn5C)c(Cl)c5ccccc54)cc3)CC2)on1 [Example 7, 3-Methoxy-isoxazole-5-carboxylic acid (1-{4-[3-chloro-2-(1-methyl-1H-tetrazol-5-yl)-indol-1-yl]-benzylcarbamoyl}-cyclopropyl)-amide] | < 20 nM | < 20 nM
Cn1nnc(-c2c(Cl)c3cc(F)ccc3n2-c2ccc(CNC(=O)C3(NC(=O)C(F)(F)F)CC3)cc2)n1 [Example 12, 1-(2,2,2-Trifluoro-acetylamino)-cyclopropanecarboxylic acid 4-[3-chloro-5-fluoro-2-(2-methyl-2H-tetrazol-5-yl)-indol-1-yl]-benzylamide] | < 20 nM | < 20 nM
Cn1nnc(-c2c(Cl)c3ccccc3n2-c2ccc(CNC(=O)C3(NC(=O)c4cccnc4Cl)CC3)cc2)n1 [Example 27, 2-Chloro-N-(1-{4-[3-chloro-2-(2-methyl-2H-tetrazol-5-yl)-indol-1-yl]-benzylcarbamoyl}-cyclopropyl)-nicotinamide] | < 20 nM | < 20 nM
COC(=O)c1c(Cl)c2c(F)cccc2n1-c1ccc(CNC(=O)C2(NC(=O)C(F)(F)F)CC2)cc1 [Example 69, 3-Chloro-4-fluoro-1-[4-({[1-(2,2,2-trifluoro-acetylamino)-cyclopropanecarbonyl]-amino}-methyl)-phenyl]-1H-indole-2-carboxylic acid methyl ester] | 20 to 100 nM | 20 to 100 nM
Cc1nc(-c2c(Cl)c3ccccc3n2-c2ccc(CNC(=O)C3(NC(=O)c4cncc(C(F)(F)F)c4)CC3)cc2)no1 [Example 180, N-(1-{4-[3-Chloro-2-(5-methyl-[1,2,4]oxadiazol-3-yl)-indol-1-yl]-benzylcarbamoyl}-cyclopropyl)-5-trifluoromethyl-nicotinamide] | < 20 nM | < 20 nM
Cn1nnc(-c2c(Cl)c3cc(Cl)ccc3n2-c2ccc(CNC(=O)C3(NC(=O)C(F)(F)F)CC3)cc2)n1 [Example 17, 1-(2,2,2-Trifluoro-acetylamino)-cyclopropanecarboxylic acid 4-[3,5-dichloro-2-(2-methyl-2H-tetrazol-5-yl)-indol-1-yl]-benzylamide] | < 20 nM | < 20 nM
Cn1nnc(-c2c(Cl)c3ccccc3n2-c2ccc(CNC(=O)C3(NC(=O)c4ccnc(F)c4)CC3)cc2)n1 [Example 28, N-(1-{4-[3-chloro-2-(2-methyl-2H-tetrazol-5-yl)-indol-1-yl]-benzylcarbamoyl}-cyclopropyl)-2-fluoro-isonicotinamide] | < 20 nM | < 20 nM
Cc1nc(-c2c(F)c3cc(F)ccc3n2-c2ccc(CNC(=O)C3(NC(=O)C(F)(F)F)CC3)cc2)no1 [Example 199, 1-(2,2,2-Trifluoro-acetylamino)-cyclopropanecarboxylic acid 4-[3,5-difluoro-2-(5-methyl-[1,2,4]oxadiazol-3-yl)-indol-1-yl]-benzylamide] | < 20 nM | < 20 nM
COc1cc(C(=O)NC2(C(=O)NCc3ccc(-n4c(-c5nc(C)no5)c(Cl)c5ccccc54)cn3)CC2)on1 [Example 58, 3-Methoxy-isoxazole-5-carboxylic acid [1-({5-[3-chloro-2-(3-methyl-[1,2,4]oxadiazol-5-yl)-indol-1-yl]-pyridin-2-ylmethyl}-carbamoyl)-cyclopropyl]-amide] | < 20 nM | < 20 nM
COc1ccc2c(c1)c(Cl)c(-c1noc(C)n1)n2-c1ccc(CNC(=O)C2(NC(=O)c3cc(OC)no3)CC2)cc1 [Example 64, 3-Methoxy-isoxazole-5-carboxylic acid (1-{4-[3-chloro-5-methoxy-2-(5-methyl-[1,2,4]oxadiazol-3-yl)-indol-1-yl]-benzylcarbamoyl}-cyclopropyl)-amide] | < 20 nM | < 20 nM
CSc1ncc(C(=O)NC2(C(=O)NCc3ccc(-n4c(-c5noc(C)n5)c(Cl)c5ccccc54)cc3)CC2)cn1 [Example 77, 2-Methylsulfanyl-pyrimidine-5-carboxylic acid (1-{4-[3-chloro-2-(5-methyl-[1,2,4]oxadiazol-3-yl)-indol-1-yl]-benzylcarbamoyl}-cyclopropyl)-amide] | < 20 nM | < 20 nM
COc1cc(C(=O)NC2(C(=O)NCc3ccc(-n4c(-c5noc(C)n5)cc5cc(F)ccc54)cc3)CC2)on1 [Example 47, 3-Methoxy-isoxazole-5-carboxylic acid (1-{4-[5-fluoro-2-(5-methyl-[1,2,4]oxadiazol-3-yl)-indol-1-yl]-benzylcarbamoyl}-cyclopropyl)-amide] | < 20 nM | < 20 nM
COc1cc(C(=O)NC2(C(=O)NCc3ccc(-n4c(-c5noc(=O)n5C)c(Cl)c5ccccc54)cc3)CC2)on1 [Example 201, 3-Methoxy-isoxazole-5-carboxylic acid (1-{4-[3-chloro-2-(4-methyl-5-oxo-4,5-dihydro-[1,2,4]oxadiazol-3-yl)-indol-1-yl]-benzylcarbamoyl}-cyclopropyl)-amide] | < 20 nM | < 20 nM
COc1cc(C(=O)NC2(C(=O)NCc3ccc(-n4c(-c5nnn(C)n5)c(Cl)c5cc(F)ccc54)cn3)CC2)on1 [Example 59, 3-Methoxy-isoxazole-5-carboxylic acid [1-({5-[3-chloro-5-fluoro-2-(2-methyl-2H-tetrazol-5-yl)-indol-1-yl]-pyridin-2-ylmethyl}-carbamoyl)-cyclopropyl]-amide] | < 20 nM | < 20 nM
Cc1nc(-c2c(Cl)c3ccccc3n2-c2ccc([C@@H](C)NC(=O)C3(NC(=O)C(F)(F)F)CC3)c(F)c2)no1 [Example 190, 1-(2,2,2-Trifluoro-acetylamino)-cyclopropanecarboxylic acid ((R)-1-{4-[3-chloro-2-(5-methyl-[1,2,4]oxadiazol-3-yl)-indol-1-yl]-2-fluoro-phenyl}-ethyl)-amide] | < 20 nM | < 20 nM
Cc1nc(-c2c(Cl)c3ccccc3n2-c2ccc(CNC(=O)C3(NC(=O)c4cc(C5CC5)on4)CC3)cc2)no1 [Example 165, 5-Cyclopropyl-isoxazole-3-carboxylic acid (1-{4-[3-chloro-2-(5-methyl-[1,2,4]oxadiazol-3-yl)-indol-1-yl]-benzylcarbamoyl}-cyclopropyl)-amide] | < 20 nM | < 20 nM
Cc1noc(-c2cc3cc(F)ccc3n2-c2ccc(CNC(=O)C3(NC(=O)c4cncc(C(F)(F)F)c4)CC3)cc2)n1 [Example 102, N-(1-{4-[5-Fluoro-2-(3-methyl-[1,2,4]oxadiazol-5-yl)-indol-1-yl]-benzylcarbamoyl}-cyclopropyl)-5-trifluoromethyl-nicotinamide] | < 20 nM | < 20 nM
COc1ccc2c(c1)c(Cl)c(-c1noc(C)n1)n2-c1ccc(CNC(=O)C2(NC(=O)C(F)(F)F)CC2)cc1 [Example 63, 1-(2,2,2-Trifluoro-acetylamino)-cyclopropanecarboxylic acid 4-[3-chloro-5-methoxy-2-(5-methyl-[1,2,4]oxadiazol-3-yl)-indol-1-yl]-benzylamide] | < 20 nM | < 20 nM
Cc1nc(-c2c(Cl)c3ccccc3n2-c2ccc(CNC(=O)C3(NC(=O)C4(C#N)CC4)CC3)cc2)no1 [Example 142, 1-Cyano-cyclopropanecarboxylic acid (1-{4-[3-chloro-2-(5-methyl-[1,2,4]oxadiazol-3-yl)-indol-1-yl]-benzylcarbamoyl}-cyclopropyl)-amide] | 20 to 100 nM | < 20 nM
